Experiments:
Assay type in all cases: in vivo
Sprague Dawley (SD) rats = assay: Anabolic assay: lumbar (L3) BMD by DEXA, PTH constructs with or without OPG-Fc; settings: 6-month-old male SD rats, DEXA Day 7; OPG-Fc 1 mg/kg once; PTH-(1-34) 20 nMoles/kg x3; PTH-(1-34)-Fc 60 nMoles/kg once
Procedure: Briefly, 6-month-old male Sprague Dawley (SD) rats were divided into groups of 6. Baseline bone mineral density (BMD) was determined in the third lumbar vertebra (L3) of all rats by dual-energy X-ray absorptiometry (DEXA) (Day 0). Rats were then treated according to the following schedule:
Group 1: Vehicle controls (PBS, injected SC, Days 1, 3, and 5)
Group 2: OPG-Fc, single SC injection (1 mg/kg) on Day 1
Group 3: PTH-(1-34), SC injections on Days 1, 3, and 5, at 20 nMoles PTH/kg/injection. This represents an optimal anabolic PTH regimen.
Group 4: Same as group 3, but with a single OPG-Fc injection on Day 1.
Group 5: Single SC injection of PTH-(1-34)-Fc at 60 nMoles/kg, on Day 1. This represents a molar dose which is equivalent to the total dose of PTH-(1-34) received by group 3, but in a single injection.
Group 6: Same as group 5, but with a single OPG-Fc injection (SC, 1 mg/kg) on Day 1.
DEXA of the lumbar spine was performed again on Day 7 to evaluate changes in BMD. […] The anabolic effect of a single treatment with PTH-(1-34)-Fc plus OPG-Fc was greater than that induced by multiple injections of PTH-(1-34), with or without OPG-Fc co-treatment.
Normal 6 month old male rats were treated with PTH-Fc or PTH or vehicle by a single SC injection. Some rats also received a single SC injection of OPG. BMD was determined 7 days later by DEXA. Data represent means+SD, N=6 rats/group.

mice [1] = assay: Mouse bioassay: SC injection days 0, 5, 10; clinical chemistry (calcium, AP, TRAP) and tibial pQCT
Procedure: Peripheral blood was obtained daily for 3 days following single subcutaneous injections of the indicated compounds.
Peripheral quantitative computed tomography (pQCT) was performed on the proximal tibial metaphysis of mice on day 15, after injections of PTH constructs on day 0, 5 and 10.
We then tested the effects of PTH-(1-34), PTH-(1-34)-Fc, PTH-(1-31)-Fc and PTH-(1-30)-Fc in mice. Four week old male mice were injected on days 0, 5, and 10 with vehicle or with PTH fragments, by SC injection. Peripheral blood was obtained for clinical chemistry at 24, 48, and 72 h. Mice were killed on day 15, vertebrae, tibiae and femurs were harvested for histology and one tibia was collected for bone density measurements (peripheral quantitative computed tomography, pQCT). Clinical chemistry endpoints included total serum calcium, serum alkaline phosphatase (AP, a marker of osteoblast activity), and serum tartrate-resistant acid phosphatase (TRAP, a marker of osteoclast activity). For each animal, the ratio of AP:TRAP was calculated as an index of relative osteoblast activity compared to osteoclast activity. A higher AP:TRAP ratio would indicate a potentially more anabolic agent.

mice [2] = assay: Hypercalcemia assay: murine hypercalcemia model, single SC injection, blood ionized calcium
Procedure: Mice were challenged with vehicle (PBS, —X—), or with PTH-(1-34) (open symbols) or with PTH-(1-34)-Fc (closed symbols). Doses were 156 nmol/kg (circles), 469 nmol/kg (triangles) or 1,560 nmol/kg (squares). Data represent group means, n=6 mice/group.
We tested the potency and duration of effect of PTH-(1-34)-Fc in a murine hypercalcemia model. Briefly, mice were injected once SC with varying doses of PTH-(1-34) or PTH-(1-34)-Fc, and peripheral blood was collected from the retroorbital sinus for determination of blood ionized calcium. The half-life and the potency of PTH-(1-34)-Fc was greater than that of PTH-(1-34), as evidenced by the sustained hypercalcemic response of mice to the former agent (FIG. 4). Hypercalcemia induced by PTH-(1-34) persisted for 6-24 h, while equimolar doses of PTH-(1-34)-Fc caused more sustained hypercalcemia (48-72 h). This duration of response is consistent with greater half-life of the PTH-(1-34)-Fc construct vs. PTH-(1-34).

rats = assay: Hypercalcemic response to a single SC injection in rats; settings: single SC injection 340 nmol/kg
Procedure: (See FIG. 10.) In an aged OVX rat model of osteoporosis, twice weekly dosing was able to reverse more than 50% of the bone loss induced by one year of estrogen ablation. The effect seen in the aged rat model was even greater when combined with a bisphosphonate (APD). In rats, a single SC injection of PTH-(1-34)-Fc (340 nmol/kg) caused a hypercalcemic response which persisted for 72 hours (FIG. 8). This duration is concordant with the rate of clearance of PTH-(1-34)-Fc from the serum, and is consistent with an optimal twice-weekly dosing regimen in rats.

[3] = test system: aged ovariectomized (OVX) rats; assay: Monotherapy in aged ovariectomized (OVX) rats: twice-weekly treatment, BMD by DEXA and serum calcium
Procedure: Eleven months after OVX, rats were treated twice per week with phosphate-buffered saline (PBS, vehicle) or with APD (0.5 mg/kg) or with PTH-(1-34)-Fc (50 nmol/kg). DEXA was performed weekly. Blood was drawn 24 hours after the second weekly injection, when the calcemic effects of PTH-Fc are typically maximal. The effects of PTH-Fc administration on lumbar BMD (FIG. 11A), tibia/femur BMD (FIG. 11B), femoral metaphysis BMD (FIG. 11C), and serum calcium (FIG. 11D) were determined.
Sprague Dawley rats were OVX'd at 3 months of age and allowed to lose bone for 11 months. Other rats were sham-operated and treated twice per week with vehicle (PBS). OVX rats were treated twice per week with SC injections of either vehicle or the bisphosphonate APD (pamidronate, 0.5 mg/kg), or with PTH-(1-34)-Fc (50 nmol/kg) or with APD+PTH-(1-34)-Fc. BMD was determined weekly via dual energy X-ray absorptiometry (DEXA). Rats were sacrificed after 4 weeks of treatment. At the start of treatment, OVX rats had significant reductions in BMD at all skeletal sites analyzed, compared to vehicle-treated […] (FIG. 11, p<0.05, 2-way ANOVA).

PTH-(1-34)-Fc: human PTH-(1-34), SVSEIQLMHNLGKHLNSMERVEWLRKKLQDVHNF, linked at its C-terminus to an Fc domain
BMD in L3 compared to PBS-treated rats (Sprague Dawley (SD) rats): failed to increase BMD | calculated AP:TRAP ratio (mice [1]; 300 nmoles/kg): increased over time | serum AP (osteoblast marker) (mice [1]; 300 nmoles/kg (given for PTH-(1-34)-Fc), 72 h): significantly elevated | time of peak serum calcium (mice [1]; 300 nmoles/kg SC): 24 h | serum calcium (mice [1]; 300 nmoles/kg SC (equimolar), 24, 48, 72 h): dramatic and sustained increase | bone mineral density (proximal tibial metaphysis) (mice [1]; 300 nmoles/kg on day 0, 5, 10, pQCT day 15): no effect | serum TRAP (osteoclast marker) (mice [1]; mice, after single SC injection): not significantly changed | peak ionized calcium levels compared with an equimolar dose of PTH-(1-34) (mice [2]; highest dose): greater increase in peak ionized calcium levels | hypercalcemic response (area under the curve) relative to equimolar PTH-(1-34) (mice [2]; highest dose employed): 2.6 fold | potency compared with PTH-(1-34) (mice [2]; hypercalcemic response): significantly greater | duration of hypercalcemia (mice [2]; single SC injection, equimolar doses, blood ionized calcium): 48 to 72 h | persistence of hypercalcemic response (rats): 72 h | calcemic response ([3]; 50 nmol/kg twice per week, alone): mild and transient hypercalcemic response | BMD at the femoral metaphysis ([3]; PTH-(1-34)-Fc 50 nmol/kg twice per week, alone or with APD 0.5 mg/kg, p<0.05): significant increase in BMD | day after which hypercalcemic response resolved spontaneously ([3]; despite continued treatments): > 10 days | reversal of bone loss induced by one year of estrogen ablation ([3]; twice weekly dosing): more than 50% | duration of treatment at which BMD increase at the femoral metaphysis was significant ([3]; twice-weekly treatment): 4 weeks
